We go through one compound from patent US20050238580A1 (priority 2002, published 2005).

The target in series [1] is T1, intestinal lactase (Homo sapiens, UniProt P09848).
T1 construct: from tissue; host or cells: small-intestinal mucous membrane of living adult human volunteers (in vivo)
Put plainly: Xylose in blood plasma of human volunteers after oral 4-galactosyl-xylose, colorimetric titration with fluoroglucinol. Format: in vivo. Here is the method:
Oral administration of 3 g of 4-galactosyl-xylose to adult human volunteers with lactose tolerance gave rise to the gradual presence of xylose in blood plasma titrated calorimetrically with fluoroglucinol, that reached a maximum about 2 hours after the intake of the disaccharide. Oral administration of the same amount of 4-galactosyl-xylose to an adult human volunteer with lactose intolerance diagnosed as hypolactasic produced a significant reduction in the amount of xylose evaluated in blood plasma of this individual two hours after the intake of the disaccharide.
The evaluation of xylose in blood after the oral administration of 4-galactosyl-xylose permits non-invasive diagnosis of intestinal lactase deficiency. This has been shown by administering 3 g of 4-galactosyl-xylose to two volunteers with lactose tolerance [individual 1, Example 17 and individual 2, Example 18 (these individuals were also studied in Examples 3 to 6)] and to the hypolactasic individual 12 with lactose intolerance [Example 19 (this individual was also studied in examples 12 and 15]). Xylose was titrated colorimetrically with fluoroglucinol in blood plasma of blood samples obtained from these individuals prior to the intake of the disaccharide and after the intake thereof at approximately 1 hour intervals for 6 hours: in the hypolactasic individual a basal blood sample and another blood sample 2 hours after the intake of the 4-galactosyl-xylose disaccharide were taken. […] In view of the amount of xylose detected in the individual with lactose intolerance 2 hours after the intake of 4-galactosyl-xylose, 0.48 μg/100 μl of plasma and the sensitivity of the titration (minimum detection limit of xylose with fluoroglucinol of […]), the minimum volume of serum or plasma to reliably make the measurement is estimated to be 50 μl, which is equivalent to 0.2 ml of blood (2 to 3 drops).

Series [2] addresses T1, intestinal lactase. Briefly: Xylose in urine of human volunteers after oral 4-galactosyl-xylose, evaluated by gas chromatography. Type of series: in vivo. As to conditions: 0.25 g oral. The text has this:
Excretion of xylose in urine after administration of 0.25 g of 4-galactose-xylose to subjects with lactose tolerance, and its reduction in hypolactasic individuals with lactose intolerance is likewise observed by the evaluation technique of xylose different from the colorimetric reaction with fluoroglucinol. This has been shown by administering 0.25 g of 4-galactosyl-xylose to a volunteer with lactose tolerance [individual 1 (also studied in Example 3), Example 15] on one hand, and on the other hand, to a volunteer with lactose intolerance having an intense intestinal lactase deficiency [individual 12 (also studied in Example 12), Example 16], and evaluating xylose by gas chromatography in the total urine collected 3 hours after the intake of the disaccharide with a chromatograph equipped with a flame ionization detector and a 12 m long glass spiral column with an inside diameter of 0.2 mm and a thickness of 0.3 μm. The presence of xylose in urine was detected in its trimethylsilyl derivative form. For this purpose the urine sample was lyophilized and dissolved in 20 μl of pyridine containing 1 mM of benzyl-β-D-xylopyranoside as an internal reference. Then another 20 μl of N-trimethylsilyl imidazole were added as a sililating agent. The mixture was treated with ultrasound for one minute and heated at 60° C. for 30 minutes. Then 1-2 μl of the sample was injected into the gas chromatograph. The temperature of the injector and the detector used was 250° C. and the temperature gradient in the column was the following: 2 minutes at 180° C. and a 5° C. increase per minute until 250° C. was reached. This temperature was maintained for 15 minutes. The concentration of xylose in each sample was calculated from the areas of the peaks corresponding to the chromatograms. The results of these experiments are compiled in FIG. 7, wherein the chromatograms corresponding to the samples of basal urine and of urine taken during 3 hours from an individual with lactose tolerance and an individual with lactose intolerance are shown. […]

T1 sequence (P09848 869-1927): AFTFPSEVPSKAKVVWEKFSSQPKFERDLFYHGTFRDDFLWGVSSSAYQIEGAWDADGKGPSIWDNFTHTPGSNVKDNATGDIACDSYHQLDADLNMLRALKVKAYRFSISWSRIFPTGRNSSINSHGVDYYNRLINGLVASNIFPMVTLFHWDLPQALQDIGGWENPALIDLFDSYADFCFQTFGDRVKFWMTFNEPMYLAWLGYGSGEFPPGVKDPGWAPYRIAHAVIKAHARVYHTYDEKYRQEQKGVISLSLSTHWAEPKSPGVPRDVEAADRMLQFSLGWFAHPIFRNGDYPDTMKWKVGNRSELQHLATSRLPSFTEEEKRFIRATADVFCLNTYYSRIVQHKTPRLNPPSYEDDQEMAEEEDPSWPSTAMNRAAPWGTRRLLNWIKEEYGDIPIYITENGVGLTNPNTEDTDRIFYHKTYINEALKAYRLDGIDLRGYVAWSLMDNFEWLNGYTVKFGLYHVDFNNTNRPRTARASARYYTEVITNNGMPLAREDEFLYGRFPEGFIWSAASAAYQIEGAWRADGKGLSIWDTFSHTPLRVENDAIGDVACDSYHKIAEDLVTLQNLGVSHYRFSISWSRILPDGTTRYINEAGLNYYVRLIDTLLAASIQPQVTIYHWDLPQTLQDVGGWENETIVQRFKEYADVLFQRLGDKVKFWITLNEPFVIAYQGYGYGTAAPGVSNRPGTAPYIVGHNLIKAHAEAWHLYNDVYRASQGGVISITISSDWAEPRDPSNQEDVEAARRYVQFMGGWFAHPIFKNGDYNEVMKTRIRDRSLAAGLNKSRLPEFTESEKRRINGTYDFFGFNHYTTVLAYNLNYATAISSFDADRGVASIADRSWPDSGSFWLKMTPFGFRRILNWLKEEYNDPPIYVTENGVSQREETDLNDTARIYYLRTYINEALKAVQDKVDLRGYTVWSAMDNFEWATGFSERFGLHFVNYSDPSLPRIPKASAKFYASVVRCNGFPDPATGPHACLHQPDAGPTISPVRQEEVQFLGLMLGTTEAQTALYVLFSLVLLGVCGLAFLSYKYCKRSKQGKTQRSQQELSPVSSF

In the case of `OCC1O[C@@H](O[C@@H]2COC(O)C(O)[C@H]2O)C(O)[C@@H](O)[C@H]1O` (stereo partly drawn), in series [1] (3 g oral, 2 hours), the “reduction of xylose in plasma, individual 12 versus individual 1” value turned out to be 72% and the “reduction of xylose in plasma, individual 12 versus individual 2” value amounted to 75%. Moreover, the “xylose in blood plasma 2 hours after intake” value in series [1] (hypolactasic individual 12, 3 g oral) is 0.48 μg/100 μl of plasma. Further, the “xylose in blood plasma in a similar period of time (2 hours)” value in series [1] (individual 1 with lactose tolerance, 3 g oral) is reported as 1.72 μg/100 ml of plasma. Moreover, the “xylose in blood plasma in a similar period of time (2 hours)” value in series [1] (individual 2 with lactose tolerance, 3 g oral) is recorded as 1.95 μg/100 ml of plasma. The “xylose in blood plasma after 6 hours” value in series [1] (individuals 1 and 2 with lactose tolerance, 3 g oral) is recorded as “undetectable”. The “reduction of xylose in urine, individual 12 versus individual 1” value in series [2] (urine of 3 hours) turned out to be 92%. In series [2] (hypolactasic individual 12 with lactose intolerance), the “total amount of xylose in urine of 3 hours” value is reported as 2.1 mg. The “total xylose in urine of 3 hours” value in series [2] (individual 1 with lactose tolerance) turned out to be 25.2 mg.
